Assay results taken from patent US20060178311A1, “Control of lactation” (Hannah Research Institute, priority 2003, published 2006).
Ends that are not written are not given here.

Test system: mammary acini from tissue of lactating mice
Test: Mammary acini culture bioassay: secretion of [3H]leucine-labelled protein
Assay type: cell-based, mouse
Conditions: 0.01-10.0 μM, singly or in combination, 2 hours
Procedure: Mammary cells were prepared from tissue of lactating mice by collagenase digestion according to the method of K Hendry, K Simpson, K Nicholas & C Wilde. Journal of Molecular Endocrinology 21: 169-177 (1998). The resultant suspension of mammary acini consisted predominantly of groups of 50-200 cells, and was cultured in medium (Medium 199/Ham's F12: 50:50 v/v) containing insulin (5 μg/ml), hydrocortisone (0.1 μg/ml) and prolactin (1 μg/ml). Culture density was 1.5×10^6 cells/ml, and cells were maintained at 37° C. in an atmosphere of 5% CO2 in air. Protein synthesis and secretion were measured by continuous labelling with L-[4.5-3H]leucine ([…]; 10-20 μCi/ml) for 2 hours in the presence or absence of milk fractions (at concentrations of 0.2-4.0 μg/ml) or synthetic peptides (0.01-10 μM). […] Radiolabel incorporation was measured by precipitation with trichloroacetic acid (final concentration 10% w/v). […]
The amount of radiolabelled protein secreted by acini in the presence of milk extracts or synthetic peptides was expressed as a percentage of that produced by the cells to which no milk fraction or peptide was added. […]
Protein secretion was measured in mammary acini cultures in the presence and absence of synthetic peptides. […]

Row | Sequence | effect of synthetic peptides on protein secretion
1 | AVAVSQEAN (also: C-terminal cysteine) [Peptide B, nine amino acid synthetic peptide] | stimulatory effect
2 | RPKHPIKHQG [Peptide A] | inhibitory action
